Laboratory results from article PMC12040169 (PLOS Biology, 2025).

Tests used:
[1] = test system: T1, C. trachomatis L2/434/Bu expressing GFP (CTL2-GFP); assay: microbe, parasite or virus in culture; parameters: C. trachomatis total inclusion area by high-content imaging, normalised to DMSO; settings: Chlamydia trachomatis, HeLa, 28.5 h; total inclusion area; read-out: % of control remaining
T1 construct: L2/434/Bu GFP intracellular growth in HeLa cells
Source text: We screened a library of 36,785 small molecules displaying drug-like properties and covering a wide chemical space (Fig 1A and S2A Data). In this process, we also complemented the assay described above with an imaging-based readout (Fig 1B). After measurements of bulk GFP and resorufin fluorescence, cells were fixed, stained with the DNA dye Hoechst, and imaged at a high-content imaging platform to detect chlamydial inclusions (GFP) and host cell nuclei (Hoechst). The total area and number of inclusions in individual wells and the number of nuclei then served as additional proxies for chlamydial growth and host cell viability. […] MICs were calculated as described above.

[2] = test system: T2, CTL2-GFP (C. trachomatis L2/434/Bu, GFP-expressing); assay: microbe, parasite or virus in culture; parameters: Intracellular C. trachomatis growth in HeLa cells, bulk GFP fluorescence relative to DMSO; settings: Chlamydia trachomatis, HeLa, 28.5 h; bulk GFP, mean of 2; read-out: % of control remaining
T2 construct: L2/434/Bu, GFP-expressing
Method: MICs were calculated as described above.

in vitro = assay: in vitro; parameters: Viability of infected HeLa host cells, resazurin conversion, bulk resorufin fluorescence relative to DMSO; settings: human, hela cells; bulk resorufin, mean of 2

SMILES | activity at 1 µM [1] | activity at 5 µM [1] | activity at 10 µM [1] | activity at 1 µM [2] | activity at 5 µM [2] | activity at 10 µM [2] | viability at 28.5 h, 1 µM (in vitro) | viability at 28.5 h, 5 µM (in vitro) | viability at 28.5 h, 10 µM (in vitro)
N#Cc1c(Nc2cccc(C(F)(F)F)c2)sc(C(=O)c2ccc3c(c2)OCO3)c1N [CBK074399] | 2.52% | 2.64% | 6.62% | 10.1% | 11.2% | 17.7% | 87.7% | 85.9% | 81.1%
COc1ccc(CCN(CCc2ccccc2)CC(O)COc2cccc3c2CCCC3)cc1 (stereo not drawn) [CBK024506T] | 99% | 114% | 55.3% | 108% | 104% | 51% | 97.4% | 95.2% | 101%
COc1ccc(C(=O)NNC(=O)/C=C/c2ccc(C(C)C)cc2)cc1 [CBK261697] | 121% | 97.3% | 48.1% | 111% | 98% | 43.2% | 95% | 95.5% | 94.3%
O=C(O)c1cn(C2CC2)c2cc(N3CCN(C(=O)Cc4ccccc4Cl)CC3)c(F)cc2c1=O [CBK297136] | 145% | 74.4% | 16.8% | 153% | 90.9% | 28.4% | 88.5% | 89.1% | 93.4%
Cc1cc(Br)ccc1S(=O)(=O)N(C)c1ccc(N2CCNCC2)c2ccccc12 [CBK016170C] | 63.9% | 26.9% | 12.9% | 106% | 75.3% | 35.2% | 91.8% | 92.1% | 112%
CC(Cc1nc(-c2nccn2C(C)C)cs1)n1cc(Cl)cn1 (stereo not drawn) [CBK304251] | 109% | 55.7% | 28.6% | 125% | 70.4% | 46.9% | 90.7% | 96.5% | 92.9%
Cc1nn(C)c(N2CCN(C(=O)OC(C)(C)C)CC2)c1N [CBK034182] | 122% | 92% | 53.1% | 120% | 91.7% | 38.1% | 90.6% | 94.8% | 88.5%
O=C(Nc1ccc2[nH]ccc2c1)c1ccccc1Nc1cccc(C(F)(F)F)c1 [CBK149583] | 93.2% | 59.8% | 72.2% | 119% | 90% | 67.7% | 118% | 114% | 112%
CN(C)[C@H]1CCC[C@@H]1C(=O)Nc1ccc(Cl)c(Cl)c1 [CBK003406] | 112% | 76.4% | 20.8% | 90.9% | 67.2% | 13% | 105% | 109% | 107%
CC(C)Nc1nc2cc(Cl)c(Cl)cc2nc1Sc1cccc(O)c1 [CBK093732] | 129% | 50.2% | 35.1% | 124% | 94.8% | 55.6% | 95.8% | 88% | 100%
c1ccc(Oc2cccc(OCCCN3CCCCC3)c2)cc1 [CBK261781] | 122% | 69.2% | 23.4% | 131% | 133% | 74.4% | 103% | 97% | 101%
Cc1ccc(CNC(=O)OCc2cccnc2C)o1 [CBK200131] | 120% | 61.9% | 91.2% | 120% | 111% | 119% | 102% | 104% | 101%
O=C(Nc1ncc(-c2ccccc2)s1)c1cccc([N+](=O)[O-])c1 [CBK157055] | 86.4% | 88.1% | 56.9% | 110% | 86.9% | 76.9% | 114% | 102% | 114%
OCCNc1nc(Nc2ccc(Br)cc2)nc2ccccc12 [CBK266724C] | 59.5% | 2.92% | 0.726% | 69.3% | 0.15% | 0% | 122% | 116% | 121%
COc1ccccc1N/C(=N\OCc1ccc(Cl)cc1Cl)c1nonc1N [CBK018391] | 89.5% | 84% | 56.1% | 137% | 122% | 103% | 90.7% | 92.4% | 94.7%
COc1ccc2[nH]cc(CCNC(=O)c3ccc(Cl)c(Cl)c3)c2c1 [CBK115870] | 109% | 78.8% | 40.9% | 132% | 66.5% | 33.8% | 93.3% | 88.8% | 92.1%
O=C(CSCc1ccc(Cl)cc1)Nc1ccc(S(=O)(=O)N2CCCCCC2)cc1 [CBK267017] | 92.3% | 104% | 54.9% | 99.4% | 85% | 60.7% | 101% | 104% | 104%
O=C(NCc1ccc([N+](=O)[O-])cc1)c1cccnc1NCc1ccc2c(c1)OCO2 [CBK153436] | 65.8% | 65.9% | 38.2% | 113% | 68.2% | 25.1% | 103% | 109% | 109%
O=C(O)/C(=N\c1cccc2ccccc12)c1ccccc1 [CBK262224] | 69.5% | 62.2% | 32.2% | 80.4% | 66.5% | 49.9% | 87.4% | 88.7% | 96%
CN1CCN(c2cc3c(cc2F)c(=O)c(C(=O)O)cn3-c2ccc(F)cc2)CC1 [CBK287138] | 11.1% | 0.783% | 0.31% | 14.6% | 5.16% | 0.93% | 103% | 102% | 104%
